Experimental findings from patent US5843983A, “Diphenylethane compounds containing a saturated heterocyclic group, their preparation, and their therapeutic use” (Sankyo Company, Limited, priority 1996, dated 1998) are described below.

Counter-ions that a name gives are not always drawn.

One test has as its target T1, squalene synthase (Rattus norvegicus, UniProt Q02769).
T1 construct: The reaction was started by the addition of rat liver microsome suspension; from tissue; host or cells: rat liver microsomes
T1 sequence (Q02769 1-416): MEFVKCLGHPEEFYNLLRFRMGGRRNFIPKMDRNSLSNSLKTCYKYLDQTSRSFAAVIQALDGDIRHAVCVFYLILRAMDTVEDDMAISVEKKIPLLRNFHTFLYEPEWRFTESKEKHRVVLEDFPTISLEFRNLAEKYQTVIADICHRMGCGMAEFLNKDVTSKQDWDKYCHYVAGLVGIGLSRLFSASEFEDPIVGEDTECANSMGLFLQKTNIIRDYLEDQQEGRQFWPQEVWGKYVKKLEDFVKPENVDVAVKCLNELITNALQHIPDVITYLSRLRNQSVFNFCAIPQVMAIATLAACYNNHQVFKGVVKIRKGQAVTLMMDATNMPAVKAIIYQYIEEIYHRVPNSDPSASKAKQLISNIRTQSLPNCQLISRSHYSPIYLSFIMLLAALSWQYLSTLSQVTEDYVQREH
The test can be described thus: Squalene synthase inhibitory activity. Type of test: biochemical. The conditions noted are these: rat liver microsome, 10 μM [4-^14 C]-FPP, pH 7.5, 37° C., 20 minutes; read-out: IC50 (50% inhibitory concentration). On the procedure: Squalene synthase inhibitory activity Squalene synthase inhibitory activity was determined by the method described in U.S. Pat. […] Anal. Biochem. 203, 310 (1992). […] The reaction was started by the addition of rat liver microsome suspension. The reaction solution was then incubated in a thermostat at 37° C. for 20 minutes, after which the reaction was terminated by the addition of 100 μl of a 1:1 by volume mixture of 40% KOH (aqueous potassium hydroxide) and 95% EtOH (aqueous ethanol). The reaction solution thus treated was further heated at 65° C. for 30 minutes, and then cooled. Squalene was extracted with 2 ml of hexane. One milliliter of the resulting hexane layer was mixed with 10 ml of scintillator, and radioactivity was determined using a liquid scintillation counter. The inhibitory activity of each test compound for the enzyme was determined by co-incubation of the sample containing the test compound with the enzyme sample and substrate in the reaction solution.
For orientation: Microsomes from liver hold many membrane-bound enzymes, among them those of drug oxidation.

Another test addresses serotonin receptors. The test is described as follows: Receptor-binding experiment. The arrangement: species or system Male Wistar rats. The conditions noted are these: rat cerebral cortex membrane, ^3 H-ligand, 30° C., 1 hour; read-out: IC50 (concentration required to inhibit the binding by 50%). The method, then:
Receptor-binding experiment
The method of Leysen et al. [Mol. Pharmacol., 21, 301-314, (1982)] was employed. Male Wistar rats (body weight 280-320 g) were used in this experiment. The head of each animal was severed, and the cerebral cortex and corpus striatum were excised. These organs were frozen on dry ice and stored at -80° C. until used. Binding to serotonin receptors was examined using the cerebral cortex. To prepare a membrane suspension, the frozen brain tissue was homogenised with 50 mM Tris-HCl buffer (pH 7.7) using Polytron PT-20, and the homogenate was centrifuged at 49,000×gfor 10 minutes. The resulting pellet was suspending in a Tris buffer, centrifuged, and resuspended in Tris buffer. The content of protein in the membrane suspension thus prepared was determined, and adjusted to 0.57 mg/protein/ml with Tris buffer. The membrane suspension was stored at -80° C.
The receptor-binding reaction was started by adding 440 μl of the membrane suspension to a test tube containing 50 μl of ^3 H-ligand and 10 μl of each test compound (dissolved in dimethyl sulfoxide). After incubation at 30° C. for 1 hour, the reaction was terminated by filtration under reduced pressure using a Whatman GF/B glass filter. The filter was washed with ice-cooled Tris buffer (4 ml×2 times). The filter was then treated with ACS-II, and its radioactivity was determined with a liquid scintillation counter. Non-specific binding was determined in the presence of 20 μM atropine. The percent inhibition of receptorbinding was determined from the percent binding in the presence of each test compound. The concentration of each test compound required to inhibit the binding by 50% (IC50) was calculated from the least square regression line.

Test [1] deals with smooth muscle contraction. The test can be described thus: Vasoconstriction experiment (serotonin-induced contraction of tail artery helical strip). The conditions noted are these: rat tail artery strip, 3×10^-6 M serotonin, Tyrode's solution, 37° C.; read-out: IC50 (concentration required to reduce the tension to 50%). Type of test: cell-based, Male SD rats. On the procedure:
Vasoconstriction experiment
Effects on smooth muscle contraction were examined by the method of Van Neuten et al. [J. Pharmacol. Exp. Ther., 218, 217-230, (1981)]. Male SD rats, each weighing approximately 500 g, were sacrificed by exsanguination, and the tail artery was excised from each animal. Adherent tissues were removed from the artery for preparation of a helical strip of dimensions about 2×20 mm. The strip was suspended in an organ bath kept at 37° C. and containing 10 ml of Tyrode's solution saturated with a mixed gas (95% O2 /5% CO2) and equilibrated for 1 hour before used in the experiment. An initial tension of 0.5 g was loaded on the helical strip, and changes in tension were recorded in an isometric manner via a transducer. 3×10^-6 M of serotonin was added to the bath as a vasoconstriction inducer, and, after stabilisation of the contractile response of the specimen, a test compound was added to the bath so as to increase the level of test compound in the bath progressively, whilst monitoring the tension in the helical strip. 10^-4 M of papaverine was then added. On the assumption that the tension before the addition of each test compound was 100% and that the tension 5 minutes after the addition of papaverine was 0%, the concentration of each test compound required to reduce the tension to 50% (IC50) was calculated from the least square regression line.

Turning to `O[C@H]1CN[C@H](CCOc2ccc(F)cc2CCc2ccccc2)C1` [Example 5, (2R,4R)-2-{2-[4-Fluoro-2-(2-phenylethyl)phenoxy]ethyl}-4-hydroxypyrrolidinehydrochloride], the IC50 on squalene synthase turned out to be 740 nM.

As to `COc1cc(CCc2cc(F)ccc2OCC[C@@H]2C[C@@H](O)CN2C)ccc1F` [Example 4, (2R,4R)-2-[2-{4-Fluoro-2-[2-(4-fluoro-3-methoxyphenyl)ethyl]phenoxy}ethyl]-4-hydroxy-1-methylpyrrolidine hydrochloride], the IC50 on serotonin receptors came out at 0.65 nM; in test [1], 2.3 nM; on squalene synthase, 1600 nM.

Take `Cc1ccc(OCC[C@@H]2C[C@@H](O)CN2C)c(CCc2ccccc2)c1` [Example 12, (2R,4R)-4-Hydroxy-1-methyl-2-{2-[4-methyl-2-(2-phenylethyl)phenoxy]ethyl}pyrrolidine hydrochloride]: the IC50 on squalene synthase was 1500 nM.

Turning to `CN1C[C@H](O)C[C@H]1CCOc1ccc(F)cc1CCc1ccc(F)c(F)c1` [Example 7, (2R,4R)-2-[2-{2-[2-(3,4-Difluorophenyl)ethyl]-4-fluorophenoxy}ethyl]-4-hydroxy-1-methylpyrrolidine hydrochloride], the IC50 on serotonin receptors stood at 0.75 nM; in test [1], 2.6 nM.

For the compound `CN1C[C@H](O)C[C@H]1CCOc1ccc(F)cc1CCc1ccc(F)cc1` [Example 2, (2R,4R)-2-[2-{4-Fluoro-2-[2-(4-fluorophenyl)ethyl]phenoxy}ethyl]-4-hydroxy-1-methylpyrrolidine hydrochloride], the values for the IC50 (at serotonin receptors; in test [1]) were 0.8 nM and 2 nM, respectively.

On to `CN1C[C@H](O)C[C@H]1CCOc1ccc(F)cc1CCc1ccccc1` [Example 6, (2R,4R)-2-{2-[4-Fluoro-2-(2-phenylethyl)phenoxy]ethyl}-4-hydroxy-1-methylpyrrolidine hydrochloride], for which the results for the IC50 (at serotonin receptors; in test [1]; at squalene synthase) were 3.4 nM, 2.2 nM and 1100 nM, respectively.

`COc1cccc(CCc2cc(F)ccc2OCC[C@@H]2C[C@@H](O)CN2C)c1` [Example 1, (2R,4R)-2-[2-{4-Fluoro-2-[2-(3-methoxyphenyl)ethyl]phenoxy}ethyl]-4-hydroxy-1-methylpyrrolidine hydrochloride]: the IC50 at serotonin receptors turned out to be 1 nM; in test [1] it was 1.9 nM.
